Measurements reported in PubChem BioAssay (NCI).
Several values for one entry are separate records, joined by “and”; a condition that tells them apart may be missing. Equal entries are not always repeated.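 Interpolation was linear, between the two tested concentrations surrounding the appropriate level; five concentrations were tested over 48 hours in 96-well plates. GI50 marks 50% less growth. TGI is the concentration that stops growth completely.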

Experiments:
Experiment in all cases: NCI-60 cell line screen, 48 h
CCRF-CEM leukemia = test system: CCRF-CEM leukemia
HCT-116 colon = test system: HCT-116 colon
SR leukemia = test system: SR leukemia
CAKI-1 renal = test system: CAKI-1 renal
KM12 colon = test system: KM12 colon
MOLT-4 leukemia = test system: MOLT-4 leukemia
HT29 colon = test system: HT29 colon
SK-MEL-5 melanoma = test system: SK-MEL-5 melanoma
OVCAR-3 ovarian = test system: OVCAR-3 ovarian
SK-OV-3 ovarian = test system: SK-OV-3 ovarian

SMILES | GI50 (CCRF-CEM leukemia) [µM] | TGI (CCRF-CEM leukemia) [µM] | GI50 (HCT-116 colon) [µM] | TGI (HCT-116 colon) | GI50 (SR leukemia) [µM] | TGI (SR leukemia) [µM] | GI50 (CAKI-1 renal) [µM] | TGI (CAKI-1 renal) [µM] | GI50 (KM12 colon) [µM] | TGI (KM12 colon) [µM] | GI50 (MOLT-4 leukemia) [µM] | TGI (MOLT-4 leukemia) | GI50 (HT29 colon) [µM] | TGI (HT29 colon) [µM] | GI50 (SK-MEL-5 melanoma) [µM] | TGI (SK-MEL-5 melanoma) [µM] | GI50 (OVCAR-3 ovarian) [µM] | TGI (OVCAR-3 ovarian) [µM] | GI50 (SK-OV-3 ovarian) [µM] | TGI (SK-OV-3 ovarian)
COc1ncc(-c2nc3c(n2C(C)C)[C@H](c2ccc(Cl)cc2)N(c2cc(Cl)cn(C)c2=O)C3=O)c(OC)n1 | 30.9 | > 100 | 22 | > 100 µM | 6.14 | 77.1 | 26.3 | > 100 | 41.2 | > 100 | 12.4 | 39.6 µM | 41.7 | > 100 | 11.7 | 24.1 | 46 | > 100 | 40.4 | > 100 µM
CN1CCN(c2ccc(-c3cnc4c(-c5csc6ccccc56)cnn4c3)cc2)CC1 | 4.43 | > 15 | 3.15 | > 15 µM | 3.03 | > 15 | 11.3 | > 15 | 4.59 | > 15 | 4.1 | > 15 µM | 1.19 | > 15 | 2.48 | 4.54 | 3.02 | 6.59 | > 15 | > 15 µM
C=C(CN(CC(=C)C(=O)c1ccccc1)C(C)(C)C)C(=O)c1ccccc1 |  | > 21 |  | 26.8 µM |  | > 21 |  | 14.5 |  | 17.6 |  | 10.2 µM |  | 41.9 |  | 31.1 |  | 37.5 |  | 34.4 µM
Nc1nc2ccc([C@@H]3Nc4ccc5[nH]ncc5c4[C@H]4[C@H]5CCC(C5)[C@H]43)cc2s1 | 0.507 | 19 | 0.488 | 1.84 µM | 0.336 | 2.72 | 0.791 | 3.34 | 0.838 | 2.3 | 0.632 | 3.05 µM | 0.435 | 11 | 1.66 | 13 | 0.366 | 1.25 | 1.73 | 3.63 µM
COc1cc(/C=C/C(=O)c2cc(F)c(Cl)cc2Cl)cc(OC)c1OC | 23.8 | 76.4 | 12.6 | 25.1 µM | 5.23 | 39.1 | 27.6 | > 100 | 10.5 | 26.4 | 12.9 | 52.9 µM | 15.2 | 45 | 49.6 | > 100 | 14.5 | 40 | > 100 | > 100 µM
COc1cc2cc(Oc3ccc(NC(=O)Nc4ccccc4)cc3)c(C)nc2cc1OCCN1CCCCC1 | 1.05 | 4.29 | 4.77 | 10.1 µM | 0.934 | 2.66 | 4.94 | 10 | 6.8 | 14.3 | 4.98 | 11.7 µM | 3.32 | 9.35 | 5.47 | 10.1 | 6.31 | 13.3 | 7.8 | 16.6 µM
FC(F)(F)c1ccc(C=NC23CC4CC(CC(C4)C2)C3)cc1 |  | > 100 |  | > 100 µM |  | > 100 |  | > 100 |  | > 100 |  | > 100 µM |  | > 100 |  | > 100 |  | > 100 |  | > 100 µM
CO[C@H]1[C@H](O)[C@H](O[C@H]2CC[C@@]3(C)[C@H](CC[C@@H]4[C@@H]3CC[C@]3(C)[C@@H](C5=CC(=O)OC5)CC[C@]43O)C2)O[C@@H](C)[C@@H]1O | 0.000406 | 0.00107 |  | 0.00229 µM and < 0.0113 µM | < 0.0001 | 0.0273 |  | 0.00156 |  | 0.0125 |  | 0.00766 µM and < 0.0265 µM |  | 0.00148 |  | 0.00194 |  | 0.00116 |  | 0.00245 µM and 0.0106 µM
Cc1ccc(S(=O)(=O)CNC(=S)CCCC(=S)NCS(=O)(=O)c2ccc(C)cc2)cc1 |  | > 100 |  | > 100 µM |  | > 100 |  | > 100 |  | > 100 |  | > 100 µM |  | > 100 |  | > 100 |  | > 100 |  | > 100 µM
COc1cccc(/C=C/C(=O)c2ccc(Cl)cc2Cl)c1OC | 2.77 | 26.9 | 2.31 | 5.85 µM | 2.28 | 9.67 | 12.6 | 25.1 | 2.74 | 13.1 | 3.04 | 12.4 µM | 5.04 | 17.3 | 13.3 | 28.1 | 7.38 | 19.7 | 15.4 | 28.7 µM
